The source made the active and inactive calls. No cut-off for these calls is given here.
How the values were obtained:
[1] = target: Botulinum neurotoxin type A (Clostridium botulinum, UniProt P0DPI0); experiment: Inhibition of Clostridium botulinum BoNT/A light chain assessed as inhibition constant at 10 nM using SNAPtide flp6 as substrate measured after 30 mins by FRET assay
[2] = target: Botulinum neurotoxin type A (Clostridium botulinum) (UniProt P0DPI0); experiment: Inhibition of BoNT/A light chain at 1 to 32 uM using SNAPtide flp6 as substrate measured after 30 mins by FRET assay; conditions: dose 1-32 µM, TDE = time-dependent effect
[3] = Half life of compound; assay type: physicochemical
[4] = target: Botulinum neurotoxin type A (Clostridium botulinum) (UniProt P0DPI0); experiment: Inhibition of Clostridium botulinum BoNT/A light chain assessed as inhibition constant at 6 to 30 uM using SNAPtide flp6 as substrate measured after 30 mins by FRET assay; conditions: dose 6-30 µM

Chain of Botulinum neurotoxin type A (P0DPI0 2-448 limits assumed): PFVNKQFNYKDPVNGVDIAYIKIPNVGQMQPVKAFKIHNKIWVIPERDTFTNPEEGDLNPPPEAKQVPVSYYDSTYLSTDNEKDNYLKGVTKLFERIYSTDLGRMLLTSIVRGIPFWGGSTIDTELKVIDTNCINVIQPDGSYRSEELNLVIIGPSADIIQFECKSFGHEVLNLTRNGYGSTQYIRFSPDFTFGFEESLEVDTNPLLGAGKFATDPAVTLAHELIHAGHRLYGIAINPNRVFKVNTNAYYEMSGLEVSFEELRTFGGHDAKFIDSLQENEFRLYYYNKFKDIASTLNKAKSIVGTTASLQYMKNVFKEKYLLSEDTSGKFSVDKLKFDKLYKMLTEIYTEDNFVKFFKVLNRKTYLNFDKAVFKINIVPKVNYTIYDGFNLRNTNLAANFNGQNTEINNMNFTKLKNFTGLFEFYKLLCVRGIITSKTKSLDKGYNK
Chain of Botulinum neurotoxin type A (Clostridium botulinum) (P0DPI0 2-448 limits assumed): as above

| Compound | Ki [1] | inhibition [2] | half-life [3] | inhibition [4] |
| --- | --- | --- | --- | --- |
| C=CCN(O)C(=O)/C=C/c1ccc(Cl)cc1Cl | > 16 µM | – | – | – |
| C=CCCCCN(O)C(=O)/C=C/c1ccc(Cl)cc1Cl | 6.31 µM | Tde | – | – |
| O=C(/C=C/c1ccc(Cl)cc1Cl)N(O)CCCCCC1CC1 | – | – | 33 min | Active |
| C=CN(O)C(=O)/C=C/c1ccc(Cl)cc1Cl | > 32 µM | – | – | – |
| CCCCCCCN(O)C(=O)/C=C/c1ccc(Cl)cc1Cl | 2.47 µM | – | – | – |
| C=CCCCCCCN(O)C(=O)/C=C/c1ccc(Cl)cc1Cl | 2.84 µM | Tde | – | – |
| C=CCCCCCN(O)C(=O)/C=C/c1ccc(Cl)cc1Cl | 4.66 µM | Tde | – | – |
| C=CCCCN(O)C(=O)/C=C/c1ccc(Cl)cc1Cl | > 8 µM | Tde | – | – |

— ChEMBL document CHEMBL5036379, “Identification of Slow-Binding Inhibitors of the BoNT/A Protease” (ACS Med Chem Lett, 2022)
